Measured values as given in patent publication US20260325500A1, “METHODS AND COMPOSITIONS FOR TREATING ACUTE STRESS DISORDER” (BioXcel Therapeutics, Inc., priority 2022, published 2026).
Counter-ions that a name gives are not always drawn.

System: rat forced swim test model (depressive-like behavior)
Test: Forced swim test in dark phase (Example 4)
Format: in vivo, Sprague Dawley rats
Conditions: 1 mg/kg, i.m.; versus vehicle saline
Text: Animal groups: Male Sprague Dawley (SD) rats (8-10 weeks old) were grouped housed 2 per cage in standard animal cages with facilities for pelleted food and drinking water in polycarbonate bottle with stainless steel sipper tubes. During the experimental period, animals were housed in a single experimental room. Rats were distributed in 7 different experimental groups with 9-12 rats per group as illustrated in Table 8. Animals were distributed to different groups based on body weight data. Each experimental group was also coded so that the experimenter became unaware of the true experimental group at the time FST trial.
Animals were housed in an environment-controlled room at 22±3° C. and relative humidity of 30 to 70 percent. During the study, 12/12 light/dark cycles were maintained. Lights of the acclimatization area were switched off at 06:00 PM. All experiments were carried out at ambient temperature under dark phase of lighting (between 06:00 PM to 06:00 AM). Adequate fresh air supply of 12-15 air changes/hour was maintained in the experimental room. The maximum and minimum temperature and relative humidity in the experimental rooms was recorded once daily. The relative humidity in the experimental room was calculated daily from dry and wet bulb temperature recordings.
Swim 1 was carried out between 18:30 to 21:30.
Swim 2 was carried out between 19:30 to 21:30. Animals were administered test compounds from 18:30 onwards in staggered manner 60 minutes before FST 2.
Forced swim test was carried out in dark phase
On Day 1, animals were subjected to forced swim test training for 15 minutes (Swim 1) and on Day 2, Swim 2 was carried out post treatment.
On day 2 animals were dosed with respective treatment 60 min prior to performing FST.
Forced swim test (Swim 2) was scored manually with no video recording.
Forced swim test (FST), was used to study the depressive-like behavior in rodents. The test was carried out in transparent cylindrical glass containers measuring 46 cm in height and 20 cm in diameter.
There were 2 swim sessions, 24 h apart. The first session, Swim 1 was the pretest/training stage (15 min) and the second session, Swim 2, was the test stage (8 min).
In swim 2, first 1-minute data was excluded from analysis and rest 7 minutes data was considered. In 7 minutes, data, it was divided 5 minutes and 2 minute.
Twenty-four hours after the start of Swim 1, the test swim (Swim 2) was carried out.
Rat was placed in the water-filled cylinder for 8 min (Swim 2).
The duration of time spent immobile, swimming, and climbing was observed by an observer blind to the treatment group.
Immobility period: A rat was judged to be immobile when it remained floating in the water without struggling and was making only those movements necessary to keep its head above water.
Statistical analysis: One Way ANOVA, Dunnet's multiple comparison test was applied with respect to vehicle saline and Tukey's multiple comparison test was applied to compare the data in between the groups using GraphPad Prism version 9 software.

SMILES: Cc1ccc2c(c1)c1c(n2CCc2ccc(C)nc2)CCN(C)C1 [latrepirdine dihydrochloride hydrate]
- increase in swimming time: 9.8%
